# Assays:
# Test in all cases: DSF
# Format in all cases: binding
# EPHA2 = molecular target: T1, EPHA2 (Homo sapiens, UniProt P29317)
# T1 construct: purchased in-house DSF panel (SGC Frankfurt)
# T1 sequence (P29317 596-900): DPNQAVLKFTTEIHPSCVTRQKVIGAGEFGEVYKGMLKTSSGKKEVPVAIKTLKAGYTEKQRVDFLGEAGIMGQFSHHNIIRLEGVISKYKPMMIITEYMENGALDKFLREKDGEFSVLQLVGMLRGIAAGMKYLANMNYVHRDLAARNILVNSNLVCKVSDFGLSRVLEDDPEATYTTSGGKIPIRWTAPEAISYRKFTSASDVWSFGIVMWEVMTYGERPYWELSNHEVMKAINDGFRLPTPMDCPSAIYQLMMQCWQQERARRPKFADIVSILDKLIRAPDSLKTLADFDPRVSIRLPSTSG
# Method: (§1) Recombinant protein kinase domains with a concentration of 2 μM were mixed with a 10 μM compound solution in DMSO, 20 mM HEPES, pH 7.5, and 500 mM NaCl. SYPRO Orange (5000×, Invitrogen) was added as a fluorescence probe (1 µl per mL). Subsequently, temperature-dependent protein unfolding profiles were measured, using the QuantStudio™ 5 realtime PCR machine (Thermo Fisher, Waltham, MA, USA). […] The temperature was raised with a step rate of 3 °C per minute. Data points were analyzed with the internal software (Thermal Shift SoftwareTM Version 1.4, Thermo Fisher) using the Boltzmann equation to determine the inflection point of the transition curve [56]. Differences in melting temperature are given as ΔTm values in °C. Measurements were performed in duplicates.
# CLK3 = molecular target: T2, CLK3 (Homo sapiens, UniProt P49761)
# T2 construct: purchased in-house DSF panel (SGC Frankfurt)
# Method: as §1
# NEK1 = molecular target: T3, NEK1 (Homo sapiens, UniProt Q96PY6)
# T3 construct: purchased in-house DSF panel (SGC Frankfurt)
# T3 sequence (Q96PY6 1-328): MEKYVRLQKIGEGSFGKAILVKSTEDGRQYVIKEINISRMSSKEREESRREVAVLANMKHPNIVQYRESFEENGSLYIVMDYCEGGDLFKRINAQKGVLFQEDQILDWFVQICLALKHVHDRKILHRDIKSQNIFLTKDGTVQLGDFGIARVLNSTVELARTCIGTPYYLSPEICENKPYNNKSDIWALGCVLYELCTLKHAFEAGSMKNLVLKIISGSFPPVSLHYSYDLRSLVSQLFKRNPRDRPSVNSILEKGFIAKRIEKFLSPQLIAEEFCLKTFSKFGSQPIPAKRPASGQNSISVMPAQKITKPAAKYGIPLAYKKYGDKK
# Method: as §1
# GSG2 = molecular target: T4, GSG2 (Homo sapiens, UniProt Q8TF76)
# T4 construct: purchased in-house DSF panel (SGC Frankfurt)
# T4 sequence (Q8TF76 465-798): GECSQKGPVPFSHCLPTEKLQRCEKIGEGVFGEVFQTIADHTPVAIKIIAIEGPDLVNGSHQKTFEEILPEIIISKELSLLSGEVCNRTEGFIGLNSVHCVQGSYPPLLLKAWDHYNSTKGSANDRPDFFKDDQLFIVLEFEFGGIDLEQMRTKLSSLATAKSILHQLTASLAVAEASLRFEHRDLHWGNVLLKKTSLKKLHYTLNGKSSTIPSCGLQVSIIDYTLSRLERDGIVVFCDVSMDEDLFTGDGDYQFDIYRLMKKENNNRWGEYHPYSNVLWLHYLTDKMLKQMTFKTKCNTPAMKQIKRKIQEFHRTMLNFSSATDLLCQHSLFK
# Method: as §1
# STK17A = molecular target: T5, STK17A (Homo sapiens, UniProt Q9UEE5)
# T5 construct: purchased in-house DSF panel (SGC Frankfurt)
# T5 sequence (Q9UEE5 61-321): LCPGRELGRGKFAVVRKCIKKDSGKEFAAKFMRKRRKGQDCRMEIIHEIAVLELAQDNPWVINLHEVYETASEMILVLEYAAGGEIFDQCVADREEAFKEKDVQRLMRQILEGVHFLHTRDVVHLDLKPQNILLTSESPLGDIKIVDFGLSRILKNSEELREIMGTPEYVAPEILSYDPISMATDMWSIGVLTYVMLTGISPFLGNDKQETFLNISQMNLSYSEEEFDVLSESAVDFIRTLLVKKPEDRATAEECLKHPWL
# Method: as §1
# SRC = molecular target: T6, SRC (Homo sapiens, UniProt P12931);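 further: compound tested at 10 µM with 2 µM protein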
# T6 construct: purchased in-house DSF panel (SGC Frankfurt)
# Method: as §1
# MAPK9 = molecular target: T7, MAPK9 (Homo sapiens, UniProt P45984);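 further: compound tested at 10 µM with 2 µM protein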
# T7 construct: purchased in-house DSF panel (SGC Frankfurt)
# Method: as §1
# TTK = molecular target: T8, TTK (Homo sapiens, UniProt P33981);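 further: compound tested at 10 µM with 2 µM protein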
# T8 construct: purchased in-house DSF panel (SGC Frankfurt)
# T8 sequence (P33981 519-808): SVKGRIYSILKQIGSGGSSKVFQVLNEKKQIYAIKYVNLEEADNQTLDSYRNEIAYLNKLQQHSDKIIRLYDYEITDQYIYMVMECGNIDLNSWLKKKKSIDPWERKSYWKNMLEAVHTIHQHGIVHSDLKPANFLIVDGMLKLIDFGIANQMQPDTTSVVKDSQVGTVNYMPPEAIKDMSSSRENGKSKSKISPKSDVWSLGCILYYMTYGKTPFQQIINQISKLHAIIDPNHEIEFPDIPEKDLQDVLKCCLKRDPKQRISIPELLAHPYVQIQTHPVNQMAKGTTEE
# Method: as §1
# MARK3 = molecular target: T9, MARK3 (Homo sapiens, UniProt P27448)
# T9 construct: purchased in-house DSF panel (SGC Frankfurt)
# Method: as §1
# EPHA5 = molecular target: T10, EPHA5 (Homo sapiens, UniProt P54756);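 further: compound tested at 10 µM with 2 µM protein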
# T10 construct: purchased in-house DSF panel (SGC Frankfurt)
# T10 sequence (P54756 653-939): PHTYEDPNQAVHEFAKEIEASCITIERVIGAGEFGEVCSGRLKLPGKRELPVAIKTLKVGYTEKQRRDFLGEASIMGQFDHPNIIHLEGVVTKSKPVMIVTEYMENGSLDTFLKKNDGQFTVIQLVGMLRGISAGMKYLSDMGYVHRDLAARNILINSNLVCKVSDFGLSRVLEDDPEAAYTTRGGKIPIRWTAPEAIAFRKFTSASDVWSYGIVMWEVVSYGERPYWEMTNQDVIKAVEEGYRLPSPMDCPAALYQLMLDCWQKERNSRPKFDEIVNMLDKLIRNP
# Method: as §1
# CSNK1D = molecular target: T11, CSNK1D (Homo sapiens, UniProt P48730);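 further: compound tested at 10 µM with 2 µM protein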
# T11 construct: purchased in-house DSF panel (SGC Frankfurt)
# T11 sequence (P48730 1-294): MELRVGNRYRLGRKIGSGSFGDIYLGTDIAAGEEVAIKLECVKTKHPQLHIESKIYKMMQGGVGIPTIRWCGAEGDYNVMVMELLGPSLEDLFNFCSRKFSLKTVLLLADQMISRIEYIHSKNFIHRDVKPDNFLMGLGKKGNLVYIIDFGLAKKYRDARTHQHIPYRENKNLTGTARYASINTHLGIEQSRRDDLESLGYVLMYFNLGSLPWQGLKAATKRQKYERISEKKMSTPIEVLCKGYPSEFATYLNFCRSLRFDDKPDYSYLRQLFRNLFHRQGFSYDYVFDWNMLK
# Method: as §1
# STK6 = molecular target: T12, STK6 (Homo sapiens, UniProt O14965)
# T12 construct: purchased in-house DSF panel (SGC Frankfurt)
# T12 sequence (O14965 122-403): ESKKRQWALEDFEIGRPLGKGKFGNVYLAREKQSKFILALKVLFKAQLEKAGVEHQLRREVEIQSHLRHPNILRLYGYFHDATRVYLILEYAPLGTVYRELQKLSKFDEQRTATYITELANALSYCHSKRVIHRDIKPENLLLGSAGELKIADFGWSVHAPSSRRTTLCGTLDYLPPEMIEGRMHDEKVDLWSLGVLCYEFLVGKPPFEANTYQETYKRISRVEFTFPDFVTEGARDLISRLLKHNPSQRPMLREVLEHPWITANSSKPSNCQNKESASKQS
# Method: as §1
# T7 sequence (P45984 1-364): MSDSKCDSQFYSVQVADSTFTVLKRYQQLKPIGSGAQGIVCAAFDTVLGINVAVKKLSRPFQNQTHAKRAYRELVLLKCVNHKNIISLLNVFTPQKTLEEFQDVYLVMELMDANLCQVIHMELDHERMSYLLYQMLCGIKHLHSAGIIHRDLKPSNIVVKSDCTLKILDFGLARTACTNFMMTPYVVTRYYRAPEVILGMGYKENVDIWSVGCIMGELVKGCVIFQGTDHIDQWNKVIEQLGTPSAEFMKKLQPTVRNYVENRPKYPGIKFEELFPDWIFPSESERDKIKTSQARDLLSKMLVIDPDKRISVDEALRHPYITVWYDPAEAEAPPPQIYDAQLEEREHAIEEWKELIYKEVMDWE
# T2 sequence (P49761 127-484): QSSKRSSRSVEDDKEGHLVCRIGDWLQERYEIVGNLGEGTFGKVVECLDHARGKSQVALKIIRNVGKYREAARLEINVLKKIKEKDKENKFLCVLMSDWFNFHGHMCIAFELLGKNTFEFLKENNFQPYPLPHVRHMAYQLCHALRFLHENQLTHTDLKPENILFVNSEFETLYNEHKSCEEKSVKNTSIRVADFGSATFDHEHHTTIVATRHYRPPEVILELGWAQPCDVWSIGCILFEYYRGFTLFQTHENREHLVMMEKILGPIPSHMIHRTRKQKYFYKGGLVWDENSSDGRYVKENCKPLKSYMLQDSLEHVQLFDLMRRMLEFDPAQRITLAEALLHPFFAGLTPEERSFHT
# T9 sequence (P27448 whole entry): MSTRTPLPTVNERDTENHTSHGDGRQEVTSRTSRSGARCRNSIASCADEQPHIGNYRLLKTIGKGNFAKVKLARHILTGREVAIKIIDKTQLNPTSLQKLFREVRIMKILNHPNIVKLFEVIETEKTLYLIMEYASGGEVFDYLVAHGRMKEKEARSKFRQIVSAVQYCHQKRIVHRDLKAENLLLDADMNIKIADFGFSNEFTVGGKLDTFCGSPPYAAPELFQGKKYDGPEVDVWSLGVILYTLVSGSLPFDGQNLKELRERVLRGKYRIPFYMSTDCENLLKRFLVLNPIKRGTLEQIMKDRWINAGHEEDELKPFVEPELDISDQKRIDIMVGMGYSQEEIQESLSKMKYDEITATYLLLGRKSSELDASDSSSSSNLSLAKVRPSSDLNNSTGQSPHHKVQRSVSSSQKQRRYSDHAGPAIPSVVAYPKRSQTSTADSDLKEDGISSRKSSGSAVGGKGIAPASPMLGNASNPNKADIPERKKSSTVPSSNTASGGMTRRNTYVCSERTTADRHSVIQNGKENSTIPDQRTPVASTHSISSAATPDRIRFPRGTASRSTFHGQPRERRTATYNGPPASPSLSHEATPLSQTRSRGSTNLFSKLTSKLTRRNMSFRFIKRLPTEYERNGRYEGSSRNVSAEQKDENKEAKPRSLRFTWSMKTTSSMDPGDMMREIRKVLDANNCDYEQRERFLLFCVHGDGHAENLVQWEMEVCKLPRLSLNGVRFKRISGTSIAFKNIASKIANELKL
# T6 sequence (P12931 254-536): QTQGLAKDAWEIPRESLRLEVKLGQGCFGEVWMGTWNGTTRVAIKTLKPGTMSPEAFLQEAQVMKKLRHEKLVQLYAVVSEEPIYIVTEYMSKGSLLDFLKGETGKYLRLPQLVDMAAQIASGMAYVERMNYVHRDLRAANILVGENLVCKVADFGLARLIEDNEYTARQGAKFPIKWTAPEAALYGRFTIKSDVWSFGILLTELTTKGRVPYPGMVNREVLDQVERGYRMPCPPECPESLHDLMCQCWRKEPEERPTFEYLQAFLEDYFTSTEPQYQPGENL
smiles,measurement,setting,value
"COC(=O)c1cc(Nc2ccnc(NCc3ccc(NC(=O)OC(C)(C)C)cc3)n2)[nH]n1 [21i, methyl 5-((2-((4-((tert-butoxycarbonyl)amino)benzyl)amino)pyrimidin-4-yl)amino)-1H-pyrazole-3-carboxylate]",ΔTm EPHA2,EPHA2,0.4 °C
same,ΔTm CLK3,CLK3,0.4 °C
same,ΔTm NEK1,NEK1,0.4 °C
same,ΔTm GSG2,GSG2,-0.2 °C
same,ΔTm STK17A,STK17A,-0.1 °C
same,ΔTm SRC,SRC,0.6 °C
same,ΔTm MAPK9,MAPK9,1.7 °C
same,ΔTm TTK,TTK,0.0 °C
same,ΔTm MARK3,MARK3,1.5 °C
same,ΔTm EPHA5,EPHA5,0.2 °C
same,ΔTm CSNK1D,CSNK1D,0.4 °C
same,ΔTm STK6,STK6,4.6 °C
"CC(C)(C)OC(=O)Nc1ccc(CNc2nccc(Nc3cc(C(=O)OC(C)(C)C)[nH]n3)n2)cc1 [43d, tert-butyl 3-((2-((4-((tert-butoxycarbonyl)amino)benzyl)amino)pyrimidin-4-yl)amino)-1H-pyrazole-5-carboxylate]",ΔTm EPHA2,EPHA2,1.3 °C
same,ΔTm CLK3,CLK3,0.0 °C
same,ΔTm NEK1,NEK1,0.1 °C
same,ΔTm GSG2,GSG2,-0.3 °C
same,ΔTm STK17A,STK17A,-0.6 °C
same,ΔTm SRC,SRC,0.6 °C
same,ΔTm MAPK9,MAPK9,-1.4 °C
same,ΔTm TTK,TTK,-0.2 °C
same,ΔTm MARK3,MARK3,-0.5 °C
same,ΔTm EPHA5,EPHA5,-2.7 °C
same,ΔTm CSNK1D,CSNK1D,1.0 °C
same,ΔTm STK6,STK6,4.0 °C
"COC(=O)c1cc(Nc2ccnc(NCCOCCNC(=O)OC(C)(C)C)n2)[nH]n1 [21d, methyl 5-((2-((2-(2-((tert-butoxycarbonyl)amino)ethoxy)ethyl)amino)pyrimidin-4-yl)amino)-1H-pyrazole-3-carboxylate]",ΔTm EPHA2,EPHA2,0.2 °C
same,ΔTm CLK3,CLK3,1.1 °C
same,ΔTm NEK1,NEK1,0.1 °C
same,ΔTm GSG2,GSG2,0.2 °C
same,ΔTm STK17A,STK17A,2.2 °C
same,ΔTm SRC,SRC,0.5 °C
same,ΔTm MAPK9,MAPK9,1.1 °C
same,ΔTm TTK,TTK,1.6 °C
same,ΔTm MARK3,MARK3,2.5 °C
same,ΔTm EPHA5,EPHA5,0.2 °C
same,ΔTm CSNK1D,CSNK1D,0.2 °C
same,ΔTm STK6,STK6,3.2 °C
"CC(C)OC(=O)c1cc(Nc2ccnc(NCc3ccc(NC(=O)OC(C)(C)C)cc3)n2)n[nH]1 [42d, isopropyl 3-((2-((4-((tert-butoxycarbonyl)amino)benzyl)amino)pyrimidin-4-yl)amino)-1H-pyrazole-5-carboxylate]",ΔTm EPHA2,EPHA2,0.6 °C
same,ΔTm CLK3,CLK3,-0.4 °C
same,ΔTm NEK1,NEK1,0.2 °C
same,ΔTm GSG2,GSG2,0.5 °C
same,ΔTm STK17A,STK17A,-0.4 °C
same,ΔTm SRC,SRC,0.4 °C
same,ΔTm MAPK9,MAPK9,-0.7 °C
same,ΔTm TTK,TTK,-0.1 °C
same,ΔTm MARK3,MARK3,-0.4 °C
same,ΔTm EPHA5,EPHA5,-0.6 °C
same,ΔTm CSNK1D,CSNK1D,0.8 °C
same,ΔTm STK6,STK6,3.4 °C
"N#CCc1ccc(Nc2nccc(Nc3cc(C4CC4)[nH]n3)n2)cc1 [compound 1, reference compound]",ΔTm EPHA2,EPHA2,8.4 °C
same,ΔTm CLK3,CLK3,11.3 °C
same,ΔTm NEK1,NEK1,1.1 °C
same,ΔTm GSG2,GSG2,2.9 °C
same,ΔTm STK17A,STK17A,9.6 °C
same,ΔTm SRC,SRC,4.4 °C
same,ΔTm MAPK9,MAPK9,6.5 °C
same,ΔTm TTK,TTK,8.8 °C
same,ΔTm MARK3,MARK3,8.1 °C
same,ΔTm EPHA5,EPHA5,6.3 °C
same,ΔTm CSNK1D,CSNK1D,3.1 °C
same,ΔTm STK6,STK6,14.3 °C
